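96-well plates; 48 h exposure; 5 concentrations. Endpoints by linear interpolation between flanking doses. Not reached: highest tested concentration assigned. At the GI50, growth is halved.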 Active and inactive are the calls of the source. Cut-off read from the data, not from the text of the source: active = GI50 up to about 1.1 µM and inactive = higher.
Tests used:
Assay in all cases: inhibition of tumour cell growth, NCI panel, 48 h
A549 = test system: A549
CAKI-1 = test system: CAKI-1
COLO 205 = test system: COLO 205
DU-145 = test system: DU-145
HL-60 = test system: HL-60
K562 = test system: K562
LOX IMVI = test system: LOX IMVI
MCF7 = test system: MCF7
MDA-MB-435 = test system: MDA-MB-435
NCI-H460 = test system: NCI-H460
NCI-H522 = test system: NCI-H522
NCI/ADR-RES = test system: NCI/ADR-RES
OVCAR-4 = test system: OVCAR-4
SF-295 = test system: SF-295
SK-MEL-2 = test system: SK-MEL-2
SNB-19 = test system: SNB-19
SW-620 = test system: SW-620
UACC-257 = test system: UACC-257
UACC-62 = test system: UACC-62
SNB-75 = test system: SNB-75

Measured: GI50

Nc1nc(-c2cccnc2)cc(-c2cc(-c3cccnc3)nc(N)n2)n1
inactive: A549 > 100 µM | CAKI-1 > 100 µM | COLO 205 > 100 µM | DU-145 > 100 µM | HL-60 > 100 µM | K562 > 100 µM | LOX IMVI > 100 µM | MCF7 > 100 µM | MDA-MB-435 50.1 µM | NCI-H460 > 100 µM | NCI-H522 > 100 µM | NCI/ADR-RES > 100 µM | OVCAR-4 > 100 µM | SF-295 > 100 µM | SK-MEL-2 > 100 µM | SNB-19 > 100 µM | SW-620 > 100 µM | UACC-257 > 100 µM | UACC-62 > 100 µM

C/C(=C\CBr)CCC(Br)C(C)(C)Br (stereo not drawn)
inactive: A549 > 100 µM | COLO 205 > 100 µM | DU-145 > 100 µM | HL-60 > 100 µM | K562 > 100 µM | MCF7 > 100 µM | MDA-MB-435 > 100 µM | NCI-H460 > 100 µM | NCI-H522 > 100 µM | NCI/ADR-RES > 100 µM | OVCAR-4 > 100 µM | SF-295 > 100 µM | SK-MEL-2 > 100 µM | SNB-19 > 100 µM | SNB-75 > 91.8 µM | SW-620 > 100 µM | UACC-257 > 100 µM | UACC-62 > 100 µM

O=C1NC(N2CCCCC2)=N/C1=C\c1cccs1
inactive: A549 > 100 µM | CAKI-1 > 100 µM | COLO 205 > 100 µM | DU-145 > 100 µM | HL-60 > 100 µM | LOX IMVI > 100 µM | MCF7 > 100 µM | MDA-MB-435 > 100 µM | NCI-H522 > 100 µM | NCI/ADR-RES > 100 µM | OVCAR-4 > 100 µM | SF-295 > 100 µM | SK-MEL-2 > 100 µM | SNB-19 > 100 µM | SW-620 > 100 µM | UACC-257 > 100 µM | UACC-62 > 100 µM

CCOC(=O)c1nc(SC)sc1NC(=O)c1ccc(OC)cc1
inactive: A549 29.7 µM | CAKI-1 > 100 µM | COLO 205 28.8 µM | DU-145 > 100 µM | HL-60 > 100 µM | K562 > 100 µM | LOX IMVI > 100 µM | MCF7 46.5 µM | MDA-MB-435 > 100 µM | NCI-H460 35.6 µM | NCI-H522 > 100 µM | NCI/ADR-RES > 100 µM | OVCAR-4 29.2 µM | SF-295 > 100 µM | SK-MEL-2 > 100 µM | SNB-19 75.7 µM | SW-620 49.1 µM | UACC-257 > 100 µM | UACC-62 > 100 µM

O=[N+]([O-])c1ccc2sc(/C=N/c3ccc(O)cc3)cc2c1
inactive: A549 48 µM | CAKI-1 20.6 µM | COLO 205 38 µM | DU-145 32.8 µM | HL-60 18.9 µM | K562 18.1 µM | LOX IMVI 23.3 µM | MCF7 20.1 µM | MDA-MB-435 18.2 µM | NCI-H460 46 µM | NCI-H522 27.7 µM | NCI/ADR-RES 28.8 µM | SF-295 42.3 µM | SK-MEL-2 22 µM | SNB-19 34 µM | SNB-75 25.8 µM | SW-620 17 µM | UACC-257 23 µM | UACC-62 23.1 µM

COC(=O)C(I(OS(=O)(=O)c1ccc(C)cc1)c1ccccc1)=P(c1ccccc1)(c1ccccc1)c1ccccc1
inactive: A549 24.5 µM | CAKI-1 40.2 µM | COLO 205 3.13 µM | DU-145 15.9 µM | HL-60 15.1 µM | K562 12.7 µM | MCF7 30.3 µM | MDA-MB-435 18 µM | NCI-H460 29.9 µM | NCI-H522 13 µM | NCI/ADR-RES 64 µM | OVCAR-4 13.7 µM | SF-295 30.1 µM | SK-MEL-2 18.2 µM | SNB-19 33.9 µM | UACC-257 17.9 µM | UACC-62 18.7 µM

CC(=O)N[C@@H](Cc1ccc(O)cn1)C(=O)NCc1ccc2c(c1)OCO2
inactive: A549 > 100 µM | CAKI-1 > 100 µM | COLO 205 > 100 µM | DU-145 > 100 µM | HL-60 > 100 µM | K562 > 100 µM | LOX IMVI > 100 µM | MCF7 > 100 µM | MDA-MB-435 > 100 µM | NCI-H460 > 100 µM | NCI-H522 > 100 µM | NCI/ADR-RES > 100 µM | OVCAR-4 > 100 µM | SF-295 > 100 µM | SK-MEL-2 > 100 µM | SNB-19 > 100 µM | SW-620 > 100 µM | UACC-257 > 100 µM | UACC-62 > 100 µM

From ChEMBL document CHEMBL1201862, “PubChem BioAssay data set” (2004)
